“And” between values parts separate entries of the source, which are not always exact repeats. Identical values can stand only once. The source made the active and inactive calls.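 The calls were made as follows: active = fitted curve falls past a set limit of signal loss at no more than twice the top dose; inconclusive = flat fit between 30 and 70% signal loss, or poor fit; inactive = signal rise, flat within 30%, or crossing too high.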
Tests used:
[1] = test system: HEK293T viability, CellTiter-Glo ATP luminescence, 72 h; experiment: HEK293T cell cytotoxicity, dose response, cytotoxicity control, CellTiter-Glo luminescence, cherry-pick, set 3 (AID 720588);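 as to AC35: potency for luminescence loss meaning cytotoxic compounds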
[2] = as above; conditions: HEK293T viability, CellTiter-Glo ATP luminescence, 72 h; at 26 µM (top of the series)

| SMILES | AC35 [1] | activity change, negative = cytotoxicity [2] |
| --- | --- | --- |
| CN(C)c1ccc(C=c2c3ccccc3n3c2c2c([n+]3C)CCCC2)cc1 | 2.08 µM |  |
| CN1c2ccc(-c3ccc(C#N)cc3)cc2[C@H]2[C@H](CCN2S(=O)(=O)c2cccc(F)c2)[C@@H]1CO | 23.4 µM |  |
| Cc1nc(N)nc(N)c1CCCc1ccc(Cl)c(Cl)c1 | 3.58 µM |  |
| Oc1c(Cl)cc(Cl)c(Cl)c1Cc1c(O)c(Cl)cc(Cl)c1Cl | 11.4 µM |  |
| N#CC(C#N)=C1C=CC=CN1/C(=C\c1ccco1)C(=O)c1ccc(Cl)cc1 | 3.47 µM |  |
| C[C@]12CC[C@H]3[C@@H](CC[C@]4(O)C[C@@H](O)CC[C@]34C=O)[C@@]1(O)CC[C@@H]2C1=CC(=O)OC1 | 0.774 µM |  |
| C[C@]12CC[C@H](O)C[C@H]1CC[C@@H]1C2CC[C@]2(C)[C@@H](C3=CC(=O)OC3)[C@@H](O)C[C@]12O (stereo partly drawn) | 1.86 µM |  |
| CN(Cc1cnc2nc(N)nc(N)c2n1)c1ccc(C(=O)N[C@@H](CCC(=O)O)C(=O)O)cc1 | 0.0442 µM and 0.0275 µM |  |
| CN1C2CCC1/C(=C/c1ccccn1)C(=O)/C2=C\c1ccccn1 | 1.1 µM |  |
| C(=N\Nc1nc2ccccc2[nH]1)/c1ccccn1 | 6.22 µM |  |
| O=C(Nc1ccc(Br)cc1)c1ccc(F)c(S(=O)(=O)N2CCN(c3ccccn3)CC2)c1 | 8.36 µM |  |
| Nc1nc(=S)c2ncn([C@@H]3O[C@H](CO)[C@@H](O)[C@H]3O)c2[nH]1 | 7.33 µM |  |
| Nc1nc2cc3c(cc2cc1C(=O)NCCc1c[nH]c2ccccc12)OCO3 | 5.04 µM |  |
| O=C1Nc2ccccc2C1=Nc1ccc(Br)cc1 | 14.1 µM |  |
| CC(C)(C)c1ccc(/C=N/Nc2ccc(C(=O)O)cc2)cc1 | 16.5 µM |  |
| CN=c1scc(-c2ccccc2F)n1/N=C/c1ccc[nH]1 | 10.8 µM |  |
| CC1=NN(c2ccc(C)cc2)C(=O)/C1=C\C=C\c1ccccc1 | 14.3 µM |  |
| CO[C@H]1CN(C)C(=O)c2ccc(NC(=O)c3ccc(-c4ccccc4)cc3)cc2OC[C@H](C)NC[C@H]1C | 8.64 µM |  |
| C[C@H](CO)N1C[C@H](C)[C@H](CN(C)Cc2ccc(C(=O)Nc3ccccc3N)cc2)Oc2ccc(NC(=O)C3CC3)cc2CC1=O | 3.6 µM |  |
| C[C@@H]1CN([C@@H](C)CO)C(=O)c2cccc(N(C)C)c2O[C@@H]1CN(C)Cc1ccc(C(=O)Nc2ccccc2N)cc1 | 8.32 µM |  |
| Cc1cccc(CN2C(=O)/C(=C\c3ccc(C(=O)NCCCN4CCN(C)CC4)cc3)Oc3ccccc32)c1 | 13.6 µM |  |
| O=C(NCc1ccc(F)cc1)N1[C@H]2CC[C@@H]1C=C(c1ccc(F)cc1OCc1ccccc1)C2 | 14.4 µM |  |

| SMILES | AC35 [1] | activity change, negative = cytotoxicity [2] |
| --- | --- | --- |
| C(=N\Nc1ccc2ccccc2n1)/c1ccc2c(c1)OCCO2 | 10.4 µM |  |
| COC1C(C)OC(OC2CC(C)(O)Cc3cc4c(c(O)c32)C(=O)c2c(O)cc3c(c2C4=O)OC2OC3(C)C(O)C(N(C)C)C2O)C(OC)C1(C)OC (stereo not drawn) | 0.128 µM |  |
| C[C@@H]1CN([C@@H](C)CO)C(=O)Cc2cc(N(C)C)ccc2O[C@H]1CN(C)Cc1ccc(C(=O)Nc2ccccc2N)cc1 | 7.46 µM |  |
| O=c1c(Cl)cc(Cl)nn1-c1ccccc1 | 19.2 µM |  |
| Cc1cc(-c2nc3cc(F)ccc3s2)ccc1N | 16.9 µM |  |
| C[C@H]1O[C@@H](O[C@H]2[C@@H](O)C[C@H](O[C@H]3[C@@H](O)C[C@H](O[C@H]4CC[C@@]5(C)[C@H](CC[C@@H]6[C@@H]5C[C@@H](O)[C@]5(C)[C@@H](C7=CC(=O)OC7)CC[C@]65O)C4)O[C@@H]3C)O[C@@H]2C)C[C@H](O)[C@@H]1O | 0.0823 µM |  |
| O=c1c2ccccc2nc(/C=C/c2cc(Br)ccc2O)n1CCCO | 14.4 µM |  |
| COc1ccc(/C=C(/C(=O)c2cccs2)N2C=CC=CC2=C(C#N)C#N)cc1 | 6.97 µM |  |
| C/C(=C\c1ccccc1)C(=O)N1CCC=CC1=O | 22.3 µM |  |
| COc1ccc(S(=O)(=O)N2CC[C@@H]3[C@@H](CO)Nc4ccc(-c5ccc(C#N)cc5)cc4[C@@H]32)cc1 | 16.5 µM |  |
| Cc1ccc(C(C)C)c(OCc2ccc(C(=O)N/N=C/c3ccc(O)cc3O)cc2)c1 | 4.02 µM |  |
| C[C@@H]1CCCCO[C@H](CN(C)Cc2ccc(C(F)(F)F)cc2)[C@H](C)CN([C@H](C)CO)C(=O)c2cc(NC(=O)CCCN(C)C)ccc2O1 | 14.6 µM |  |
| CCCCCCCN(c1ccccc1)[C@@H]1C[C@H]2CCCC(=O)N3CC[C@@H](C1)[C@@H]23 | 13.3 µM |  |
| C[C@@H]1CN([C@@H](C)CO)C(=O)c2cc(NC(=O)c3ccccc3)ccc2O[C@@H](C)CCCCO[C@H]1CN(C)C(=O)Nc1cccc2ccccc12 | 0.637 µM |  |
| CCc1ccc(/C=C2\SC(=S)N(CCCC(=O)N3CCN(C)CC3)C2=O)cc1 | 17.6 µM |  |
| CCOc1ccc(N=Nc2ccc(O)c3ncccc23)cc1 | 13.4 µM |  |
| C[C@@H]1CCCCO[C@H](CN(C)Cc2ccc(C(=O)Nc3ccccc3N)cc2)[C@@H](C)CN([C@H](C)CO)C(=O)c2cc(NS(=O)(=O)c3ccc(F)cc3)ccc2O1 | 13.3 µM |  |
| CCc1ccc(N2C=C(C(=O)OC)C(c3ccc(OC)cc3)C(C#N)=C2N)cc1 (stereo not drawn) | 10.6 µM |  |
| O=C(Nc1ccc2c(c1)OCO2)N1C[C@@H]2N[C@H](C1)C2c1ccc(C=Cc2ccccc2)cc1 (stereo partly drawn) | 9.59 µM |  |
| O=c1ccc2[n+]([O-])c3ccc(O)cc3oc-2c1 | 4.57 µM |  |
| COc1ccc(Cn2cc3c(-c4ccc(F)cc4)nnc-3c3cc(OC)c(OC)cc32)cc1 | 10.2 µM |  |
| CC(C)N1C/C(=C/c2cccnc2)C(=O)/C(=C/c2cccnc2)C1 | 18.7 µM |  |

| SMILES | AC35 [1] | activity change, negative = cytotoxicity [2] |
| --- | --- | --- |
| CC12CCC(O)CC1CCC1C2CCC2(C)C(C3=CC(=O)OC3)CCC12O (stereo not drawn) | 0.375 µM |  |
| C[C@H]1CN([C@@H](C)CO)C(=O)c2cc(N(C)C)ccc2O[C@H]1CN(C)Cc1ccc(C(=O)Nc2ccccc2N)cc1 | 3.65 µM |  |
| C[C@@H]1CN([C@H](C)CO)C(=O)c2cccc(N(C)C)c2O[C@@H]1CN(C)Cc1ccc(C(=O)Nc2ccccc2N)cc1 | 11.7 µM |  |
| C(=Cc1cnc2ccccc2n1)c1ccc2c(c1)OCO2 | 5.29 µM |  |
| OC[C@H]1[C@@H](c2ccc(C#CC3CCCC3)cc2)[C@@H]2CN(CCC(F)(F)F)CCCCN12 | 10.4 µM |  |
| COc1ccc(OC)c(-c2nnc3n2N=C(c2ccc(OC)c(OC4CCCC4)c2)CS3)c1 | 11.6 µM |  |
| C[C@H](CO)N1C[C@H](C)[C@H](CN(C)Cc2ccc(Oc3ccccc3)cc2)Oc2ccc(NC(=O)Cn3cnnn3)cc2CC1=O | 15.5 µM |  |
| Cc1nc(N)nc(N)c1-c1ccc(Cl)c(Cl)c1 | 1.72 µM |  |
| CCCCC[C@H](C)N1C[C@H](COCc2ccccc2)Oc2cc(N3CC[C@@H](N(C)C)C3)ccc2S1(=O)=O | 14.8 µM |  |
| C=C1C(=O)C=C[C@]2(C)C[C@@H]3OC(=O)[C@](C)(O)[C@H]3C[C@@H]12 | 8.77 µM |  |
| BrC(=C\c1ccccc1)/C=N/n1cnnc1 | 17.8 µM |  |
| O=C(O)c1ccc(N/N=C/c2ccc3nccnc3c2)cc1 | 11.9 µM |  |
| NC1=CC(=O)C(=O)c2cccnc21 | 20.7 µM |  |
| CCCCc1c(-c2ccccc2OC)ncn1Cc1ccc(C(C)(C)C)cc1 | 6.42 µM |  |
| O=c1[nH]c(=O)n([C@H]2C[C@H](O)[C@@H](CO)O2)cc1F | 5.28 µM |  |
| CC(=O)OC1CC(OC2C(O)CC(OC3C(O)CC(OC4CCC5(C)C(CCC6C5CCC5(C)C(C7=CC(=O)OC7)CCC65O)C4)OC3C)OC2C)OC(C)C1OC1OC(CO)C(O)C(O)C1O (stereo not drawn) | 0.0583 µM |  |
| COC(=O)CC1(C(=O)OC)Oc2ccc(Br)cc2C(=O)N1c1cccc(Cl)c1Cl (stereo not drawn) | 13.1 µM |  |
| O=C1NC(=O)N(Cc2ccc(F)cc2)C(=O)/C1=C\C=C\c1ccco1 | 13.3 µM |  |
| C[C@@H]1O[C@@H](O[C@H]2C[C@@H](O)[C@]3(CO)[C@H]4[C@H](O)C[C@]5(C)[C@@H](C6COC(=O)C6)CC[C@]5(O)[C@@H]4CC[C@]3(O)C2)[C@H](O)[C@H](O)[C@H]1O (stereo partly drawn) | 2.22 µM |  |
| COc1ccc(-c2ccc3c(c2)[C@H]2[C@H](CCN2S(=O)(=O)c2ccc(OC)cc2)[C@@H](CO)N3C)cc1 | 24.5 µM |  |
| COc1ccccc1C(CCNCc1ccc(N(C)C)cc1)c1ccc(OC(C)C)cc1 (stereo not drawn) | 10.7 µM |  |
| C[C@@H]1CN([C@@H](C)CO)S(=O)(=O)c2ccc(C#Cc3ccncc3)cc2O[C@H]1CN(C)S(=O)(=O)c1ccccc1 | 24.5 µM |  |

| SMILES | AC35 [1] | activity change, negative = cytotoxicity [2] |
| --- | --- | --- |
| C[C@H](O)C#Cc1ccc2c(c1)O[C@@H](CN(C)Cc1ccc(-c3ccccc3)cc1)[C@H](C)CN([C@@H](C)CO)S2(=O)=O | 14.7 µM and 11.2 µM |  |
| Nc1nc(N)c(-c2cccc(C(F)(F)F)c2)c(Cc2cccc(C(F)(F)F)c2)n1 | 8.95 µM |  |
| Oc1c(C(c2ccc(Cl)cc2)N2CCCC2)cc(Cl)c2cccnc12 (stereo not drawn) | 6.54 µM |  |
| Nc1ccc(Oc2cccc(Oc3ccc(N)cc3)c2)cc1 | 6.82 µM |  |
| Cc1cc(C)cc(N2C(=O)NC(=O)/C(=C\C=C\c3ccco3)C2=O)c1 | 10.6 µM |  |
| C=C1C(=O)O[C@@H]2[C@H]1[C@@H](OC(=O)/C(C)=C/C)C/C(C)=C\C(=O)/C=C(\C)[C@@H]2O | 7.47 µM |  |
| C(=Cc1nc2ccccc2o1)c1ccc2c(c1)OCO2 | 2.47 µM |  |
| Nc1nc(N)c2cc(Sc3ccc4ccccc4c3)ccc2n1 | 4.44 µM |  |
| C[C@@H]1CN([C@H](C)CO)C(=O)c2cc(N(C)C)ccc2O[C@H]1CN(C)Cc1ccc(C(=O)Nc2ccccc2N)cc1 | 16.5 µM |  |
| COc1ccc([Si](C)(C)[C@H]2[C@H](CCO)O[C@@]3(C(=O)N(c4ccccc4)c4ccccc43)[C@@H]2C)cc1 | 15 µM |  |
| C[C@H](CO)N1C[C@H](C)[C@@H](CN(C)Cc2ccc(C(F)(F)F)cc2)OCCCC[C@H](C)Oc2ccc(NS(=O)(=O)c3ccc(F)cc3)cc2C1=O | 15.1 µM |  |
| CCN(Cc1ccccc1)c1ccc(/C=N/N=C(N)N)cc1 | 13.2 µM |  |
| CC(=O)OC1CC2(O)C3CCC4CC(O)CCC4(C)C3CCC2(C)C1C1=CC(=O)OC1 (stereo not drawn) | 0.262 µM |  |
| CC12CCC3C(CCC4(O)CC(O)CCC34C=NO)C1(O)CCC2C1=COC(=O)C1 (stereo not drawn) | 0.25 µM |  |
| C/C(=N\Nc1cccc2cccnc12)c1ccccn1 | 11.8 µM |  |
| C[C@@H]1CN([C@@H](C)CO)C(=O)c2cc(N(C)C)ccc2O[C@H]1CN(C)Cc1ccc(C(=O)Nc2ccccc2N)cc1 | 24.6 µM |  |
| O=C1C(=O)N(CCS(=O)(=O)c2ccccc2)c2ccc(Cl)cc21 |  | -2.19% (inactive) |
| Cc1ccc(OCCNC(=O)c2cccc(S(=O)(=O)NCc3ccccc3)c2)cc1 |  | 12.3% (inactive) |
| O=C(Nc1ccc(NC(=O)c2cc3ccccc3o2)cc1)c1ccc2c(c1)OCCO2 |  | 7.63% (inactive) |
| O=c1[nH]c(/C=C2\C=Nc3ccccc32)c(O)n1Cc1ccccc1F |  | -17.6% (inactive) |
| COc1ccc(/C=C2/SC(=S)N(CCCC(=O)Nc3ccccc3C(=O)O)C2=O)cc1 |  | -21% (inactive) |
| COc1ccc2cc(C(N)=O)/c(=N\NC(=O)c3ccccc3)oc2c1 |  | -13.7% (inactive) |
